Our source for the IC50 values is patent publication US20250011331A1 (Nimbus Saturn, Inc., priority 2021, published 2025).

As a reminder, the IC50 is the midpoint of a concentration-inhibition curve.

The target in this assay is T1, HPK1 (Homo sapiens, UniProt Q92918).
T1 construct: purchased Invitrogen
T1 sequence (Q92918 whole entry): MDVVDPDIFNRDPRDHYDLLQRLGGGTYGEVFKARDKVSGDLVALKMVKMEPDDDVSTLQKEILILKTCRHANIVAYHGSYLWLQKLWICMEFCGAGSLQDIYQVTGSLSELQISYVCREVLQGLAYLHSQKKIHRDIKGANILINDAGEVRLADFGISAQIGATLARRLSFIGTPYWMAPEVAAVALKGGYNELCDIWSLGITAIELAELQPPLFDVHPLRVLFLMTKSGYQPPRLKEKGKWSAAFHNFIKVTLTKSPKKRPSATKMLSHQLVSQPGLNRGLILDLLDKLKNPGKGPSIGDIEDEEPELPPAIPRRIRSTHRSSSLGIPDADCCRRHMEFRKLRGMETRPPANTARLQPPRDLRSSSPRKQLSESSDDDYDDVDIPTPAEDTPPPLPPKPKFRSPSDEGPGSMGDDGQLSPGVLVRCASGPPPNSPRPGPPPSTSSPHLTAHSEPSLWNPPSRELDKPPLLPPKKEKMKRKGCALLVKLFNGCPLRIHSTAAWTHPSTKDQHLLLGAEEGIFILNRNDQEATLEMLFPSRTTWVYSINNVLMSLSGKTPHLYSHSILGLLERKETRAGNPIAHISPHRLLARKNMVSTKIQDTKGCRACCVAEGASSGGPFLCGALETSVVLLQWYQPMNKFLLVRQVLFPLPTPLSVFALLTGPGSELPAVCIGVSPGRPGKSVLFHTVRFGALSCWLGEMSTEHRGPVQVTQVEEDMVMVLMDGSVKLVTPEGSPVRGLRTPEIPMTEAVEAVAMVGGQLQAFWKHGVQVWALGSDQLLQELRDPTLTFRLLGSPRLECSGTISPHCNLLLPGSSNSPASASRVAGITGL
The experiment in a line: HPK1 biochemical enzyme assay (microfluidic mobility shift). The settings on record: 1.5 nM HPK1 (Invitrogen), 1 mM ATP, 30 min preincubation, 60 min at RT, Caliper EZ Reader. As to the method:
HPK1 biochemical enzyme assay: HPK1 enzyme inhibition was measured using a microfluidic mobility shift assay. Reactions were performed in a 384-well plate, containing 1.5 nM HPK1 (Invitrogen), in assay buffer (Cama Biosciences; pH 7.4). Test compounds were titrated in ten point curves (top final assay concentration 3 μM), and preincubated with enzyme/substrate mix for 30 min prior to initiation of the reaction by addition of ATP (1 mM final concentration) and substrate (1 μM final concentration; Carna Biosciences) diluted in assay buffer supplemented by MgCl2 (final assay concentration of 5 mM). Following 60 min incubation at RT, the reaction was terminated by addition of 60 μl/well termination buffer (Carna Biosciences) and signal determination using a Caliper EZ Reader (Perkin Elmer, UK).
As to `CO[C@H]1C[C@H](Oc2ccc(Nc3ccc(-c4cnc5cc(F)ccn45)c4c3C(=O)NC4)nc2CN(C)C)C1` [Compound I-19], the 50% inhibitory concentration (IC50) is no more than 100 nM.

`C[C@H](O)c1ccc(Nc2ccc(-c3cnc4cc(F)ccn34)c3c2C(=O)NC3)nc1CN(C)C` [Compound I-10, (S)-7-((6-((dimethylamino)methyl)-5-(1-hydroxyethyl)pyridin-2-yl)amino)-4-(7-fluoroimidazo[1,2-a]pyridin-3-yl)isoindolin-1-one]: the IC50 was no more than 100 nM.

Turning to `CCN1CCC(c2ccc(Nc3ccc(-c4cnc5cc(F)ccn45)c4c3C(=O)NC4)nc2CN(C)C)CC1=O` (stereo not drawn) [Compound I-48, 7-[[6-[(dimethylamino)methyl]-5-(1-ethyl-2-oxo-4-piperidyl)-2-pyridyl]amino]-4-(7-fluoroimidazo[1,2-a]pyridin-3-yl)isoindolin-1-one], the concentration for half-maximal inhibition (IC50) was no more than 100 nM.

Regarding `C[C@@H](c1ccc(Nc2ccc(-c3cnc4cnccn34)c3c2C(=O)NC3)nc1CN(C)C)C1CCOCC1` [Compound I-36], the IC50 was no more than 100 nM.

Consider `CO[C@@]1(c2ccc(Nc3ccc(-c4cnc5cc(F)ccn45)c4c3C(=O)NC4)nc2CN(C)C)CCOC1` (single isomer, unassigned) [Compound I-20], for which the IC50 was no more than 100 nM.

For `Cc1cncc2ncc(-c3ccc(Nc4ccc([C@@H]5CCOC5)c(CN(C)C)n4)c4c3CNC4=O)n12` (single isomer, unassigned) [Compound I-27], the IC50 is no more than 100 nM.

Turning to `CN(C)Cc1nc(Nc2ccc(-c3cnc4cc(F)ccn34)c3c2C(=O)NC3)ccc1[C@H]1CC[C@@H](O)C1` [Compound I-1, 7-((6-((dimethylamino)methyl)-5-((1S,3R)-3-hydroxycyclopentyl)pyridin-2-yl)amino)-4-(7-fluoroimidazo[1,2-a]pyridin-3-yl)isoindolin-1-one], the 50% inhibitory concentration (IC50) was no more than 100 nM.

For the compound `C[C@H](c1ccc(Nc2ccc(-c3cnc4cnccn34)c3c2C(=O)NC3)nc1CN(C)C)C1CCOCC1` [Compound I-37], the concentration for half-maximal inhibition (IC50) is no more than 100 nM.

As to `CN(C)Cc1nc(Nc2ccc(-c3cnc4cc(F)ccn34)c3c2C(=O)NC3)ccc1[C@@]1(C)CCCO1` (single isomer, unassigned) [Compound I-5], the IC50 was no more than 100 nM.

With `CN(C)Cc1nc(Nc2ccc(-c3cnc4cc(F)ccn34)c3c2C(=O)NC3)ccc1C(C)(C)N1CCOCC1=O` [Compound I-25], the half-inhibitory concentration (IC50) is no more than 100 nM.

Consider `Cc1cncc2ncc(-c3ccc(Nc4ccc([C@H]5CCOC5)c(CN(C)C)n4)c4c3CNC4=O)n12` (single isomer, unassigned) [Compound I-28], for which the half-inhibitory concentration (IC50) was no more than 100 nM.

Consider `C[C@@H](O)c1ccc(Nc2ccc(-c3cnc4cc(F)ccn34)c3c2C(=O)NC3)nc1CN(C)C` [Compound I-9, (R)-7-((6-((dimethylamino)methyl)-5-(1-hydroxyethyl)pyridin-2-yl)amino)-4-(7-fluoroimidazo[1,2-a]pyridin-3-yl)isoindolin-1-one], for which the IC50 is no more than 100 nM.

Consider `CO[C@]1(c2ccc(Nc3ccc(-c4cnc5cc(F)ccn45)c4c3C(=O)NC4)nc2CN(C)C)CCOC1` (single isomer, unassigned) [Compound I-21], for which the 50% inhibitory concentration (IC50) is no more than 100 nM.

Take `CO[C@H]1CCN(Cc2nc(Nc3ccc(-c4cnc5cc(F)ccn45)c4c3C(=O)NC4)ccc2C2CCN(C)C(=O)C2)C1` (stereo partly drawn) [Compound I-44, 4-(7-fluoroimidazo[1,2-a]pyridin-3-yl)-7-[[6-[[(3S)-3-methoxypyrrolidin-1-yl]methyl]-5-(1-methyl-2-oxo-4-piperidyl)-2-pyridyl]amino]isoindolin-1-one]: the 50% inhibitory concentration (IC50) is no more than 100 nM.

In the case of `CN(C)Cc1cc(C2CCOC2)cc(Nc2ccc(-c3cnc4cc(F)ccn34)c3c2C(=O)NC3)n1` (stereo not drawn) [Compound I-46], the 50% inhibitory concentration (IC50) is greater than 1000 nM.

Consider `CN(C)Cc1nc(Nc2ccc(-c3cnc4cc(C#N)ccn34)c3c2C(=O)NC3)ccc1C1CCOC1` (single isomer, unassigned) [Compound I-38, 3-(7-((6-((dimethylamino)methyl)-5-(tetrahydrofuran-3-yl)pyridin-2-yl)amino)-1-oxoisoindolin-4-yl)imidazo[1,2-a]pyridine-7-carbonitrile], for which the concentration for half-maximal inhibition (IC50) is no more than 100 nM.

As to `CC(Oc1ccc(Nc2ccc(-c3cnc4cnccn34)c3c2C(=O)NC3)nc1CN(C)C)C1CC(F)(F)C1` (stereo not drawn) [Compound I-49, 7-[[5-[1-(3,3-difluorocyclobutyl)ethoxy]-6-[(dimethylamino)methyl]-2-pyridyl]amino]-4-imidazo[1,2-a]pyrazin-3-yl-isoindolin-1-one], the IC50 was no more than 100 nM.

For `CN1CC[C@H](c2ccc(Nc3ccc(-c4cnc5cc(F)ccn45)c4c3C(=O)NC4)nc2)C1=O` [Compound I-53, (R)-4-(7-fluoroimidazo[1,2-a]pyridin-3-yl)-7-((5-(1-methyl-2-oxopyrrolidin-3-yl)pyridin-2-yl)amino)isoindolin-1-one], the IC50 was no more than 100 nM.

In the case of `CN(C)Cc1nc(Nc2ccc(-c3cnc4cc(F)ccn34)c3c2C(=O)NC3)ccc1[C@H]1CC[C@H](O)C1` [Compound I-3, 7-((6-((dimethylamino)methyl)-5-((1S,3S)-3-hydroxycyclopentyl)pyridin-2-yl)amino)-4-(7-fluoroimidazo[1,2-a]pyridin-3-yl)isoindolin-1-one], the IC50 is no more than 100 nM.

As to `CN(C)Cc1nc(Nc2ccc(-c3cnc4cc(C#N)ccn34)c3c2C(=O)NC3)ccc1C1CCOC1` (stereo not drawn) [Compound I-47, 3-[7-[[6-[(dimethylamino)methyl]-5-tetrahydrofuran-3-yl-2-pyridyl]amino]-1-oxo-isoindolin-4-yl]imidazo[1,2-a]pyridine-7-carbonitrile], the half-inhibitory concentration (IC50) is no more than 100 nM.

As to `CN(C)Cc1nc(Nc2ccc(-c3cnc4cc(F)ccn34)c3c2C(=O)NC3)ccc1C1(C)CCOCC1` [Compound I-4, 7-((6-((dimethylamino)methyl)-5-(4-methyltetrahydro-2H-pyran-4-yl)pyridin-2-yl)amino)-4-(7-fluoroimidazo[1,2-a]pyridin-3-yl)isoindolin-1-one], the IC50 was no more than 100 nM.

Turning to `COC1CN(Cc2nc(Nc3ccc(-c4cnc5cnccn45)c4c3C(=O)NC4)ccc2C2CCOC2)C1` (stereo not drawn) [Compound I-41, 4-imidazo[1,2-a]pyrazin-3-yl-7-[[6-[(3-methoxyazetidin-1-yl)methyl]-5-tetrahydrofuran-3-yl-2-pyridyl]amino]isoindolin-1-one], the 50% inhibitory concentration (IC50) is greater than 1000 nM.

On to `CC(c1ccc(Nc2ccc(-c3cnc4cnccn34)c3c2C(=O)NC3)nc1CN(C)C)C1CCOCC1` (stereo not drawn) [Compound I-35], for which the concentration for half-maximal inhibition (IC50) was no more than 100 nM.

With `C[C@H](OC1CCC1)c1ccc(Nc2ccc(-c3cnc4cnccn34)c3c2C(=O)NC3)nc1CN(C)C` [Compound I-30], the concentration for half-maximal inhibition (IC50) was no more than 100 nM.

Turning to `CN1CCN(C(=O)[C@@H]2CCOC2)c2ccc(Nc3ccc(-c4cnc5cc(F)ccn45)c4c3C(=O)NC4)nc2C1` (single isomer, unassigned) [Compound I-17], the IC50 is 100 to 1000 nM.

Turning to `C[C@@H](OC1CCC1)c1ccc(Nc2ccc(-c3cnc4cnccn34)c3c2C(=O)NC3)nc1CN(C)C` [Compound I-29], the half-maximal inhibitory concentration (IC50) was no more than 100 nM.

For `COCC1CC(c2ccc(Nc3ccc(-c4cnc5cc(F)ccn45)c4c3C(=O)NC4)nc2CN(C)C)CCO1` (stereo not drawn) [Compound I-32], the concentration for half-maximal inhibition (IC50) was no more than 100 nM.

For the compound `C[C@H](OC[C@H]1COCCO1)c1ccc(Nc2ccc(-c3cnc4cc(F)ccn34)c3c2C(=O)NC3)nc1CN(C)C` (single isomer, unassigned) [Compound I-33], the IC50 was no more than 100 nM.

Consider `CN1CCN(C(=O)[C@H]2CCOC2)c2ccc(Nc3ccc(-c4cnc5cc(F)ccn45)c4c3C(=O)NC4)nc2C1` (single isomer, unassigned) [Compound I-18], for which the IC50 lay within 100 to 1000 nM.

For the compound `C[C@@H](c1nc(Nc2ccc(-c3cnc4cc(F)ccn34)c3c2C(=O)NC3)ccc1C1CCOCC1)N(C)C` [Compound I-8, (S)-7-((6-(1-(dimethylamino)ethyl)-5-(tetrahydro-2H-pyran-4-yl)pyridin-2-yl)amino)-4-(7-fluoroimidazo[1,2-a]pyridin-3-yl)isoindolin-1-one], the IC50 is no more than 100 nM.

As to `C[C@H](c1nc(Nc2ccc(-c3cnc4cc(F)ccn34)c3c2C(=O)NC3)ccc1C1CCOCC1)N(C)C` [Compound I-7, (R)-7-((6-(1-(dimethylamino)ethyl)-5-(tetrahydro-2H-pyran-4-yl)pyridin-2-yl)amino)-4-(7-fluoroimidazo[1,2-a]pyridin-3-yl)isoindolin-1-one], the IC50 lay within 100 to 1000 nM.

As to `CN1CCCC1c1nc(Nc2ccc(-c3cnc4cc(F)ccn34)c3c2C(=O)NC3)ccc1C1CCOC1` (stereo not drawn) [Compound I-16], the 50% inhibitory concentration (IC50) is 100 to 1000 nM.

In the case of `CN(C)Cc1nc(Nc2ccc(-c3cnc4cnccn34)c3c2C(=O)NC3)ccc1OCC1CCC(F)(F)CC1` [Compound I-11], the IC50 is no more than 100 nM.
